Source: patent US20260166113A1, “COMPOSITIONS AND METHODS FOR TREATING RENAL CANCER” (The Regents of the University of Michigan, priority 2022, published 2026)
Entries after “also recorded” stand apart in the source; their conditions may differ.

Tests used:
[1] = test system: 5 RCC cell lines (786-0, 769-P, A-498, Caki-1, Caki-2); test: Kinase inhibition, DIA-MS phosphoproteome of treated RCC cell lines; assay type: cell-based; settings: treated at calculated IC50 for 1.5 hours; for phosphorylation of signaling-related downstream substrates: DIA-MS
Description: For in vitro experiments assessing the impact of select kinase inhibition on renal cancer cell models (786-0, 769-P, A-498, Caki-1, and Caki-2), the kinase inhibitors, Adaversotib, Everolimus, Sapanisterib, Gefitinib, and Trametinib were dissolved in dimethyl sulfoxide (DMSO) and subjected to sonication in a water bath at room temperature. Following an assessment of individual cell line growth rates to enable calculation of half maximal inhibitory concentration (IC50), cells were seeded in triplicate at concentrations of either 1,000 cells/well (786-0, 769-P, A-498, Caki-2) or 10,000 cells/well (Caki-1). Post-24 hour seeding, cells were subjected to kinase inhibitors at final concentrations of 1 nm, 10 nM, 50 nM, 100 nM, 500 nM, […], with non-treated cells and DMSO treated cells included as controls. Cell growth was measured on day 1 (kinase inhibitor treatment), day 4, and day 6 using the colorimetric CellTiter 96® Aqueous One Cell Proliferation Solution Assay (MTS) following the manufacturer's instructions. IC50 for each cell line in response to single kinase inhibitor exposure was determined by plotting inhibitor concentration against percent activity relative to DMSO-treated controls and calculating the x-intercept of the linear logarithmic trend line. For phosphoproteomic characterization of renal cell models treated with individual kinase inhibitors, six treatment conditions were devised—control, Adaversotib treatment, Everolimus treatment, Sapanisterib treatment, Gefitinib treatment, and Trametinib treatment—and cells were seeded at ˜5E6 cells/15 cm plate and allowed to reach ˜80% confluency. 30 minutes prior to kinase inhibitor treatment, fresh media was exchanged. Cells were then treated with kinase inhibitors at calculated IC50 values for 1.5 hours. Media was removed and cells were three times with a volume of ice-cold PBS. Cells were scraped using 1.5 mL of ice-cold PBS, transferred to Eppendorf tubes, and spun at 3,000×g for 5 minutes at 4° C. A volume of lysis buffer (8 M urea, 75 mM NaCl, 50 mM Tris, pH 8.0, 1 mM EDTA, […] aprotinin, […] leupeptin, 1 mM PMSF, 10 mM NaF, Phosphatase Inhibitor Cocktail 2 and Phosphatase Inhibitor Cocktail 3 [1:100 dilution], and 20 mM PUGNAc) was added and cells lysed. Subsequent sample preparation and ESI-LC-MS/MS analysis for global proteomic and phosphoproteomic characterization for DIA analysis were performed as described for tissue samples.
Analysis of the DIA data from the kinase inhibitor study (whole proteome and phosphopeptide enriched data) was performed as described above. For each data type, the libraries were built from the corresponding 30 DIA runs (6 treatments x 5 cell lines) supplemented with 8 or 9 fractionated DDA files for whole proteome and phosphopeptide-enriched samples, respectively. The resulting whole proteome spectral library contained 8882 proteins and 173932 precursors; the phosphopeptide enriched sample library contained 7841 proteins and 101491 precursors (including non-phosphorylated proteins and peptides). After DIA-NN quantification, the final quantification table for the phosphopeptide-enriched dataset contained quantification information for 46577 phosphorylated peptides forms, representing 22161 peptide sequences from 5154 proteins. The whole proteome dataset table contained quantification for 7654 genes.

786-O renal cancer cells [2] = test: CellTiter-Glo Luminescent Cell Viability Assay; assay type: cell-based; settings: increasing concentrations for a week, FIG. 18J
Description: (§1) 786-O cells were maintained in Gibco RPMI-1640 supplemented with 10% FBS. CAS 668467-91-2 (UCHL-1 inhibitor) was purchased from Sigma-Aldrich (L4170) and its impact on cell viability was evaluated. Briefly, 2000 cells were seeded on white flat bottom 96 well plates and were treated with increasing concentrations of the inhibitor for a week. CellTiter-Glo Luminescent Cell Viability Assay (Promega) was used to assess cell viability and IC-50 was calculated using a graph pad. Impact of UCHL-1 inhibitor on cell morphology was evaluated using IncuCyte ZOOM assay. For western blot analysis, cell lysates were harvested from control and UCHL-1 treated 786-O cells. Following protein quantification, lysates were resolved in NuPAGE Bis-Tris Protein Gel (ThermoFisher Scientific), transferred on to nitrocellulose membranes, blocked with 5% milk, and incubated overnight with UCHL-1 antibody (HPA005993, Sigma-Aldrich). Following day, membranes were washed with TBST buffer, incubated with HRP-conjugated secondary antibodies, washed, and imaged using Odyssey Fc imager (LiCOR Biosciences).

ccRCC cell line Caki-1 = test: In vitro drug treatment and growth inhibition assessment (AlamarBlue cell viability); assay type: cell-based; settings: 1, 5, 25 μM, treatment 7 days, FIG. 18J
Description: (§2) The ccRCC cell line Caki-1 and a control cell line HK-2 were maintained in Dulbecco's Modified Eagle Medium/Nutrient Mixture F-12 (DMEM/F-12) culture medium (Gibco-11320033) supplemented with 10% FBS (Sigma, F-9665) and 1% Pen Strep (Gibco, 10,000 U/mL-15140122). All cell lines were seeded at 50,000 cells/well in duplicates in 24-well plates at day 0 and were treated with either UCHL1 inhibitor (CAS 668467-91-2-Calbiochem, Sigma Aldrich-662086-10 MG) or GLUL inhibitor (L-Methionine sulfoximine, Sigma Aldrich-M5379-500 MG) upon reaching 50-60% confluency at day 3 in culture. For both UCH-L1inhibitor or GLUL inhibitor treatment, the working concentrations were used at 1 μM, 5 μM, and 25 μM. Treatment was maintained in culture for a total of 7 days and growth inhibition assessment was performed using AlamarBlueTM Cell Viability Reagent (Invitrogen-DAL1025) at a ratio of 1:10 for 4 hours according to the manufacturer's protocol. Plots and IC50 concentrations were produced in Prism GraphPad (version 9.2.0) by plotting the percent growth inhibition on the y-axis and the Log (concentration) on the x-axis. The corresponding IC50 was extracted from the nonlinear regression curve fitting analysis using Prism GraphPad. Cells treated with only a growth medium without any drugs were used as negative controls.

[3] = test system: normal kidney HK-2 cell line; test: as above; assay type: cell-based; settings: HK-2 normal kidney control; 1, 5, 25 μM; treatment 7 days
Description: as §2

[4] = test system: neuroblastoma cell line NB1 (NB-1); test: Cell viability by CellTiter-Glo assay; assay type: cell-based
Description: (§3) The cell viability was determined by CellTiter-Glo assays (Promega). Cells were seeded in 96-well plates (3000 cells per well) in respective culture medium. After 24 hrs incubation, a serial dilution of compounds was added into plates with six replications for each dose. After 120 hrs incubation, the CellTiter-Glo assays were performed based on the manufacturer's instruction to analyze cell proliferation rates. The bioluminescence signal was acquired by the Infinite M1000 Pro plate reader (Tecan). The data were analyzed by GraphPad Prism software (GraphPad Software).

[5] = test system: metastatic papillary RCC cell line ACHN1; test: Cell viability by CellTiter-Glo assay; assay type: cell-based; settings: 120 hrs incubation; for effect on cell viability: FIG. 23D
Description: as §3

786-O renal cancer cells [6] = test: Cell morphology by IncuCyte ZOOM assay; assay type: cell-based; settings: 30 μM, 24 hr, FIG. 18K
Description: as §1

[7] = test system: Akt signaling pathway in 786-O cells; test: Western blot analysis of Akt signaling; assay type: cell-based; settings: FIG. 18L
Description: as §1

skrc42.EV = settings: FIG. 21G
Description: as §2

metastatic RCC = settings: everolimus versus sunitinib; literature ref 85; cited from earlier work

## C=CCn1c(=O)c2cnc(Nc3ccc(N4CCN(C)CC4)cc3)nc2n1-c1cccc(C(C)(C)O)n1 [AZD-1775]
[1]
  response among the five kinase inhibitors (phosphorylation of downstream targeted substrates): showed better responses
  phosphorylation of signaling-related downstream substrates: reduced CDK1 phosphorylation levels in all five cell lines

## CC(=O)ON=C1C(=O)N(Cc2cc(Cl)ccc2Cl)c2ccc(Cl)cc21 [CAS 668467-91-2]
786-O renal cancer cells [2]
  inhibition of cell viability: dose-dependent inhibition of cell viability
ccRCC cell line Caki-1
  inhibition of cell viability: dose-dependent inhibition of cell viability
[3]
  sensitivity of cell viability to treatment: resistant to the treatment
[4]; NB-1, FIG. 23D right
  effect on cell viability: dramatic effects
[4]; neuroblastoma cell line NB1
  IC50: 1600 nM
[5]; FIG. 23D middle
  IC50: 650 nM
[5]; listed as UCHL1 inhibitor
  effect on cell viability: dramatic effects; also recorded: dramatic decrease in cell viability
786-O renal cancer cells [6]
  cell morphology: altered morphology being elongated and stressed
[7]
  activation of the Akt signaling pathway: suppressed activation of the Akt signaling pathway in a dose-dependent manner

## CS(=N)(=O)CC[C@H](N)C(=O)O (stereo partly drawn) [L-Methionine sulfoximine]
[3]
  sensitivity of cell viability to treatment: not sensitive to the treatment
skrc42.EV
  response of cell viability to anti-GLUL treatment: responded to the anti-GLUL treatment

## CC(C)n1nc(-c2ccc3oc(N)nc3c2)c2c(N)ncnc21 [TAK-228]
[1]
  response among the five kinase inhibitors (phosphorylation of downstream targeted substrates): showed better responses
  phosphorylation of signaling-related downstream substrates: reduced phosphorylation of the mTOR complex component, AKT1S1, and its downstream phospho-substrate target, EIF4EBP1

## CO[C@H]1C[C@@H]2CC[C@@H](C)[C@@](O)(O2)C(=O)C(=O)N2CCCC[C@H]2C(=O)O[C@H]([C@H](C)C[C@@H]2CC[C@@H](OCCO)[C@H](OC)C2)CC(=O)[C@H](C)/C=C(\C)[C@@H](O)[C@@H](OC)C(=O)[C@H](C)C[C@H](C)/C=C/C=C/C=C/1C [everolimus]
[1]
  phosphorylation of signaling-related downstream substrates: minimal impact
Metastatic RCC
  therapeutic value / response in metastatic RCC: relatively poor response

## COc1cc2ncnc(Nc3ccc(F)c(Cl)c3)c2cc1OCCCN1CCOCC1 [gefitinib]
[1]
  phosphorylation of signaling-related downstream substrates: minimal impact

## C#CCN(C)Cc1ccccc1 [pargyline]
[5]
  effect on cell viability: no effect on cell viability; also recorded: did not affect
